ChEMBL document CHEMBL2417465, “One-pot synthesis and cytotoxicity studies of new Mannich base derivatives of polyether antibiotic--lasalocid acid” (Bioorg Med Chem Lett, 2013)
Calls of active or inactive are those of the source. The calls are words filed in the database; no cut-off is given here.

Legend:
A549 [1] = assay: Cytotoxicity against human A549 cells after 72 hrs by MTT assay; type: functional, cell-based; conditions: for IC50: A549, 72 h
P388 [2] = assay: Cytotoxicity against mouse P388 cells after 72 hrs by MTT assay; type: functional, cell-based; conditions: for IC50: P388, 72 h
MCF7 [3] = assay: Cytotoxicity against human MCF7 cells after 72 hrs by MTT assay; type: functional, cell-based; conditions: for IC50: MCF7, 72 h
BALB/3T3 = assay: Cytotoxicity against mouse BALB/3T3 cells after 72 hrs by SRB assay; type: cell-based; conditions: for Activity: mouse, balb/3t3, 72 h; for IC50: Mus musculus, BALB/3T3, 72 h
[4] = Cytotoxicity against HLMEC cells after 72 hrs by SRB assay; type: cell-based, Homo sapiens; conditions: for Activity: human, hlmec; for IC50: Homo sapiens, HLMEC
HT-29 [5] = assay: Cytotoxicity against human HT-29 cells after 72 hrs by MTT assay; type: functional, cell-based; conditions: for IC50: HT-29, 72 h
P388 [6] = assay: Selectivity index, ratio of IC50 for HLMEC cells to IC50 for mouse P388 cells; type: functional
P388 [7] = assay: Selectivity index, ratio of IC50 for mouse BALB/3T3 cells to IC50 for mouse P388 cells; type: functional
A549 [8] = assay: Selectivity index, ratio of IC50 for HLMEC cells to IC50 for human A549 cells; type: functional
MCF7 [9] = assay: Selectivity index, ratio of IC50 for HLMEC cells to IC50 for human MCF7 cells; type: functional
HT-29 [10] = assay: Selectivity index, ratio of IC50 for HLMEC cells to IC50 for human HT-29 cells; type: functional
HT-29 [11] = assay: Selectivity index, ratio of IC50 for mouse BALB/3T3 cells to IC50 for human HT-29 cells; type: functional
A549 [12] = assay: Selectivity index, ratio of IC50 for mouse BALB/3T3 cells to IC50 for human A549 cells; type: functional
MCF7 [13] = assay: Selectivity index, ratio of IC50 for mouse BALB/3T3 cells to IC50 for human MCF7 cells; type: functional

## CCCCCCCCN(CCCCCCCC)Cc1c(CC[C@@H](C)[C@H](O)[C@H](C)C(=O)[C@H](CC)[C@H]2O[C@](CC)([C@H]3CC[C@](O)(CC)[C@H](C)O3)C[C@@H]2C)ccc(C)c1O
A549 [1]
  Activity: inactive
P388 [2]
  Activity: inactive
MCF7 [3]
  Activity: inactive
BALB/3T3
  Activity: Non-toxic
[4]
  Activity: Non-toxic
HT-29 [5]
  Activity: inactive

## CC[C@@H](C(=O)[C@@H](C)[C@@H](O)[C@H](C)CCc1ccc(C)c(O)c1CN1CCOCC1)[C@H]1O[C@](CC)([C@H]2CC[C@](O)(CC)[C@H](C)O2)C[C@@H]1C
P388 [6]
  Ratio IC50: 1.5
P388 [7]
  Ratio IC50: 4.44
A549 [8]
  Ratio IC50: 0.71
A549 [1]
  IC50: 6.81 µM
P388 [2]
  IC50: 3.23 µM
MCF7 [9]
  Ratio IC50: 2.33
HT-29 [10]
  Ratio IC50: 0.85
MCF7 [3]
  IC50: 2.08 µM
HT-29 [11]
  Ratio IC50: 2.5
A549 [12]
  Ratio IC50: 2.1
BALB/3T3
  IC50: 14.3 µM
[4]
  IC50: 4.86 µM
MCF7 [13]
  Ratio IC50: 6.89
HT-29 [5]
  IC50: 5.74 µM

## CC[C@@H](C(=O)[C@@H](C)[C@@H](O)[C@H](C)CCc1ccc(C)c(O)c1C(=O)O)[C@H]1O[C@](CC)([C@H]2CC[C@](O)(CC)[C@H](C)O2)C[C@@H]1C [LASALOCID]
P388 [6]
  Ratio IC50: 0.39
P388 [7]
  Ratio IC50: 1.62
A549 [8]
  Ratio IC50: 0.97
A549 [1]
  IC50: 1.8 µM
P388 [2]
  IC50: 4.54 µM
MCF7 [9]
  Ratio IC50: 0.56
HT-29 [10]
  Ratio IC50: 0.9
MCF7 [3]
  IC50: 3.12 µM
HT-29 [11]
  Ratio IC50: 3.77
A549 [12]
  Ratio IC50: 4.08
BALB/3T3
  IC50: 7.35 µM
[4]
  IC50: 1.75 µM
MCF7 [13]
  Ratio IC50: 2.36
HT-29 [5]
  IC50: 1.95 µM

## CC[C@@H](C(=O)[C@@H](C)[C@@H](O)[C@H](C)CCc1ccc(C)c(O)c1CN(Cc1ccccc1)Cc1ccccc1)[C@H]1O[C@](CC)([C@H]2CC[C@](O)(CC)[C@H](C)O2)C[C@@H]1C
P388 [6]
  Ratio IC50: 1.12
P388 [7]
  Ratio IC50: 18.72
A549 [8]
  Ratio IC50: 0.13
A549 [1]
  IC50: 36.8 µM
P388 [2]
  IC50: 4.11 µM
MCF7 [9]
  Ratio IC50: 0.25
HT-29 [10]
  Ratio IC50: 0.06
MCF7 [3]
  IC50: 18.4 µM
HT-29 [11]
  Ratio IC50: 1.02
A549 [12]
  Ratio IC50: 2.09
BALB/3T3
  IC50: 76.9 µM
[4]
  IC50: 4.61 µM
MCF7 [13]
  Ratio IC50: 4.17
HT-29 [5]
  IC50: 75.6 µM

## CC[C@@H](C(=O)[C@@H](C)[C@@H](O)[C@H](C)CCc1ccc(C)c(O)c1CN(C(C)C)C(C)C)[C@H]1O[C@](CC)([C@H]2CC[C@](O)(CC)[C@H](C)O2)C[C@@H]1C
P388 [6]
  Ratio IC50: 0.97
P388 [7]
  Ratio IC50: 3.56
A549 [8]
  Ratio IC50: 0.82
A549 [1]
  IC50: 5.62 µM
P388 [2]
  IC50: 4.79 µM
MCF7 [9]
  Ratio IC50: 0.84
HT-29 [10]
  Ratio IC50: 0.87
MCF7 [3]
  IC50: 5.5 µM
HT-29 [11]
  Ratio IC50: 3.2
A549 [12]
  Ratio IC50: 3.03
BALB/3T3
  IC50: 17.1 µM
[4]
  IC50: 4.63 µM
MCF7 [13]
  Ratio IC50: 3.1
HT-29 [5]
  IC50: 5.33 µM

## CCCN(CCC)Cc1c(CC[C@@H](C)[C@H](O)[C@H](C)C(=O)[C@H](CC)[C@H]2O[C@](CC)([C@H]3CC[C@](O)(CC)[C@H](C)O3)C[C@@H]2C)ccc(C)c1O
P388 [6]
  Ratio IC50: 1.15
P388 [7]
  Ratio IC50: 6.35
A549 [8]
  Ratio IC50: 0.78
A549 [1]
  IC50: 5.3 µM
P388 [2]
  IC50: 3.58 µM
MCF7 [9]
  Ratio IC50: 0.73
HT-29 [10]
  Ratio IC50: 0.59
MCF7 [3]
  IC50: 5.62 µM
HT-29 [11]
  Ratio IC50: 3.23
A549 [12]
  Ratio IC50: 4.29
BALB/3T3
  IC50: 22.7 µM
[4]
  IC50: 4.12 µM
MCF7 [13]
  Ratio IC50: 4.04
HT-29 [5]
  IC50: 7.03 µM

## CCCCN(CCCC)Cc1c(CC[C@@H](C)[C@H](O)[C@H](C)C(=O)[C@H](CC)[C@H]2O[C@](CC)([C@H]3CC[C@](O)(CC)[C@H](C)O3)C[C@@H]2C)ccc(C)c1O
P388 [6]
  Ratio IC50: 0.69
A549 [8]
  Ratio IC50: 0.84
A549 [1]
  IC50: 5.27 µM
P388 [2]
  IC50: 6.35 µM
MCF7 [9]
  Ratio IC50: 0.73
HT-29 [10]
  Ratio IC50: 0.63
MCF7 [3]
  IC50: 6.11 µM
[4]
  IC50: 4.43 µM
HT-29 [5]
  IC50: 7.02 µM

## CCCCCCCCCCCCN(CCCCCCCCCCCC)Cc1c(CC[C@@H](C)[C@H](O)[C@H](C)C(=O)[C@H](CC)[C@H]2O[C@](CC)([C@H]3CC[C@](O)(CC)[C@H](C)O3)C[C@@H]2C)ccc(C)c1O
A549 [1]
  Activity: inactive
P388 [2]
  Activity: inactive
MCF7 [3]
  Activity: inactive
BALB/3T3
  Activity: Non-toxic
[4]
  Activity: Non-toxic
HT-29 [5]
  Activity: inactive
